According to patent US5393777A, “Deferration using anguibactin siderophore” (State of Oregon Acting by and through the State Board of …, priority 1990, dated 1995):
Entries after “also recorded” stand apart in the source; their conditions may differ. Read-outs that look alike come from different tables or passages of the source.

What was measured:
[1] = as known in the art; cited from earlier work
[2] = ferric iron (Fe3+) binding / affinity / formation constant
Text: Each molecule of anguibactin chelates one ferric (Fe^3+ or Fe(III)) ion. Anguibactin also binds Ga(III).

calcium (Ca2+) affinity = type: binding; settings: anguibactin
ferrous (Fe2+) affinity = type: binding
Ga(III) binding = settings: anguibactin
Procedure: The structure of anguibactin was determined as outlined in Jalal et al., J. Am. Chem. Soc. 111:292 (1989), and shown schematically in FIG. 2. Anguibactin has a molecular weight of 348 g/mol, which is about half the molecular weight of deferoxamine (657 g/mol). Anguibactin can be regarded as a form of catechol rather than a monophenol. It has a unique structure which bears some resemblance to pyochelin. See Llinas et al., Biochemistry 12:3836 (1973). Anguibactin has been identified as ω-N-hydroxy-ω-[[2'-(2'',3''-dihydroxyphenyl)thiazolin-4'-yl]-carboxy]histamine by crystal X-ray diffraction studies of its anhydro derivative, proton and ^13 C nuclear magnetic resonance spectroscopy of its deferri and Ga(III) complex, fast-atom bombardment (FAB) mass spectrometry, and chemical degradation.

[3] = removal of ferric ion from ferric hydroxide; type: binding; settings: aqueous, pH between 7 and 8
[4] = competitive binding assay, removal of Fe3+ from aerobactin; settings: competitive binding assays
transferrin [5] = assay: removal of Fe3+ from transferrin; settings: anguibactin; competitive binding assays
[6] = tested on: iron-binding proteins in the fish host; assay: removal of iron from iron-binding proteins in the fish host; settings: in vivo
[7] = removal of ferric iron from aqueous solutions
[8] = tested on: human diploid fibroblast cells; assay: inhibition of 59Fe uptake by normal human diploid fibroblast cells (FIG. 3); type: cell-based; settings: 59Fe-containing cell-growth medium
Procedure: An experiment was conducted to characterize the chelation properties of anguibactin by examining its effect on iron uptake by mammalian cells in culture.
Normal human diploid fibroblast cells were mixed with ^59 Fe-containingcell-growth medium. Samples of the dosed cells were then incubated for increasing lengths of time. After each time period, the corresponding samples were rinsed to remove any free radioiron. The rinsed cells were treated with trypsin and the lysates precipitated with trichloroacetic acid. Radioactive counting of the precipitated lysates was performed using a Beckman counter. Addition of anguibactin and subsequent assay for radioiron in otherwise identical parallel samples yielded a measure of the capacity of the siderophore present in the cell-growth medium to interrupt the uptake of radioiron by the cultured cells.

rat heart cells = assay: inhibition of iron uptake by rat heart cells; type: cell-based; settings: non-immortalized cells, data not shown
[9] = toxicity on injection into fish; type: in vivo; settings: injection of 400 μl anguibactin
Text: (§1) Preliminary studies indicate that anguibactin toxicity is very low.

[10] = toxicity on injection into rabbits; type: in vivo, rabbit; settings: injection of 400 μl
Text: as §1

[11] = stability to acid hydrolysis; type: physicochemical
[12] = excretion of radioiron (59Fe) in urine and feces; type: in vivo, rats; settings: about 10 mg incubated with 59FeCl3, subcutaneous, urine and feces over a week
Procedure: To determine the ability to excrete chelated iron, a procedure similar to that generally used to evaluate iron chelators is employed. Trace amounts of ^59 FeCl3 are incubated in vitro with about 10 mg anguibactin and subcutaneously injected into normal subjects such as rats. Cumulative excretion of radioiron is measured during the subsequent week in urine and feces. Weak iron chelators are not able enhance ^59 Fe excretion relative to a control injected with ^59 FeCl3 only. […] Evaluation of the distribution of radioiron in urine and stool provides an indication of whether the siderophore-bound iron is removed from plasma by kidneys (urine) or by the liver followed by excretion to the bile (stool).

Vibrio anguillarum = assay: experimental infection of salmonid fishes, iron supply by siderophore for growth of avirulent strain; type: in vivo; settings: fish infected with wild-type V. anguillarum
Text: A mutant strain of Vibrio anguillarum termed 775:Tn1-5 was produced which contained the pJM1-derivative plasmid pJHC-91 in which a transposon element Tn1 was inserted into genetic unit I. This mutant strain can grow in vitro in iron-limited media only if the supernatant from strains containing the wild-type pJM1 plasmid, and thus plenty of anguibactin, is supplied. Therefore, strains harboring the pJHC-91 plasmid must be able to transport and incorporate iron from anguibactin but are not able to produce this anguibactin itself. Strains containing the pJHC-91 plasmid are able to synthesize the pOM2 outer membrane protein.

toxicity, general = settings: preliminary studies
[13] = theoretical; cited from earlier work
transferrin [14] = settings: deferoxamine; cited from earlier work
ferritin = settings: cited from earlier work
hemosiderin = settings: cited from earlier work
cytochromes = settings: cited from earlier work
hemoglobin = settings: cited from earlier work
[15] = cited from earlier work
[16] = cited from earlier work; remark: listed apart in the source
[17] = deferoxamine; cited from earlier work
[18] = in vivo; cited from earlier work
[19] = human, in vivo; cited from earlier work
Yersinia enterocolitica = settings: in some cases; cited from earlier work
[20] = deferoxamine; cited from earlier work; remark: listed apart in the source

SMILES: O=C(O)CN(CCN(CC(=O)O)CC(=O)O)CC(=O)O [EDTA]
- toxicity of calcium chelators [1]: relatively toxic

SMILES: O=C(C1CSC(c2cccc(O)c2O)=N1)N(O)CCc1c[nH]cn1 (centres unmarked) [anguibactin, ω-N-hydroxy-ω-[[2'-(2'',3''-dihydroxyphenyl)thiazolin-4'-yl]-carboxy]histamine]
- affinity for ferric ions [2]: extremely high
- dependence of Fe3+ binding on pH [2]: dependent on pH
- ferric (Fe3+) ions chelated per molecule [2]: one
- iron chelating power compared with deferoxamine ([2]; from competitive binding data): more powerful iron chelator than the widely used deferoxamine
- Fe3+ binding in mildly alkaline conditions ([2]; mildly alkaline conditions): excellent binding can be achieved
- affinity for Ca2+ ions (calcium (Ca2+) affinity): only a very weak affinity
- affinity for ferrous (Fe2+) ions (ferrous (Fe2+) affinity): only a very weak affinity; also recorded: little affinity
- binding of Ga(III) (Ga(III) binding): binds Ga(III)
- binding of metals other than iron known to be essential for bacterial metabolism (binding of other metals): does not bind any metal other than iron known to be essential for bacterial metabolism
- removal of ferric ion from ferric hydroxide [3]: remove ferric ion from ferric hydroxide
- removal of Fe3+ from other siderophores such as aerobactin [4]: able to remove Fe^3+ from other siderophores such as aerobactin
- removal of Fe3+ from transferrin (transferrin [5]): able to remove Fe^3+
- removal of iron from transferrin and other iron-binding proteins in the fish host [6]: very efficient in removing iron from aqueous solution as well as from transferrin and from other iron-binding proteins in the fish host
- removal of iron from aqueous solution [7]: capable of removing ferric iron from aqueous solutions, including cell-culture medium; also recorded: very efficient in removing iron from aqueous solution
- inhibition of iron uptake by human fibroblast cells [8]: inhibits uptake, from a liquid medium, of iron by cultured human diploid fibroblast cells; also recorded: interrupts the flow of iron into human cells
- inhibition of iron uptake by human fibroblast cells ([8]; listed as Anguibactin): inhibits iron uptake by living cells
- inhibition of iron uptake by rat heart cells (rat heart cells): substantially the same results
- inhibition of iron uptake by rat heart cells (rat heart cells; listed as Anguibactin): inhibits iron uptake by living cells
- adverse effect, fish [9]: no discernable adverse effect
- adverse effect, rabbits [10]: no discernable adverse effect
- cleavage by hydrochloric acid ([11]; 6N hydrochloric acid): cleave anguibactin to 2,3-dihydroxybenzoic acid, dehydrocystine, and histamine
- acid hydrolysis below pH 3 ([11]; environment more acidic than pH 3): undergoes acid hydrolysis to at least a partial degree
- pH down to which the molecule remains intact ([11]; pH): ≥ 3
- excretion of radioiron [12]: enhance excretion of radioiron
- level of siderophore in blood and kidneys of infected fish (Vibrio anguillarum): sufficient to provide iron for considerable growth of the avirulent strain
- solubility in methanol (solubility; methanol): freely soluble in water and methanol
- solubility in water (solubility): highly soluble in water
- solubility in water (solubility; listed as Anguibactin): freely soluble in water
- toxicity (toxicity, general): very low
- toxicity (toxicity, general; listed as Anguibactin): very low toxicity

SMILES: CC(=O)N(O)CCCCCNC(=O)CCC(=O)N(O)CCCCCNC(=O)CCC(=O)N(O)CCCCCN [deferoxamine]
- capacity of binding ferric iron [13]: about 8.5 parts by weight
- removal of iron from transferrin (transferrin [14]): not readily from transferrin
- removal of iron from ferritin (ferritin): wrests iron from ferritin
- removal of iron from hemosiderin (hemosiderin): wrests iron from ferritin and hemosiderin
- removal of iron from cytochromes (cytochromes): substantially not at all from cytochromes
- removal of iron from hemoglobin (hemoglobin): substantially not at all from cytochromes and hemoglobin
- Intravenous LD50, mice [15]: 287 mg/kg
- Intravenous LD50, rats [16]: 329 mg/kg
- acid hydrolysis [17]: prone to acid hydrolysis
- absorption after oral administration [18]: poorly absorbed after oral administration
- toxic reactions [19]: toxic and can cause a number of reactions, including allergic reactions: pruritis, wheals, rash, and anaphylaxis; and dysuria, gastrointestinal symptoms, diarrhea, fever, leg cramps, hypotension, and tachycardia
- effect on susceptibility of iron-overload patients to Yersinia enterocolitica infections (Yersinia enterocolitica): enhanced this susceptibility, resulting in generalized infections
- excretion of radioiron [20]: enhance excretion of radioiron
